Measurements from article PMC10215352 (Biology, 2023).
Peptide text beside a SMILES is read from it.

What was measured:
Assay type in all cases: cell-based
YdgR [1] = target: T1, YdgR (Escherichia coli, UniProt P77304); assay: inhibition of β-Ala-Lys-AMCA uptake in E. coli; conditions: 10 mM peptide, 0.5 mM labelled substrate β-Ala-Lys-AMCA, pH 6.5, 37 °C; competing substrate
T1 construct: gene dtpA; full-length, C-terminal His6 tag, expressed in E. coli BL21(DE3) pLysS, whole-cell uptake
T1 sequence (P77304 1-500): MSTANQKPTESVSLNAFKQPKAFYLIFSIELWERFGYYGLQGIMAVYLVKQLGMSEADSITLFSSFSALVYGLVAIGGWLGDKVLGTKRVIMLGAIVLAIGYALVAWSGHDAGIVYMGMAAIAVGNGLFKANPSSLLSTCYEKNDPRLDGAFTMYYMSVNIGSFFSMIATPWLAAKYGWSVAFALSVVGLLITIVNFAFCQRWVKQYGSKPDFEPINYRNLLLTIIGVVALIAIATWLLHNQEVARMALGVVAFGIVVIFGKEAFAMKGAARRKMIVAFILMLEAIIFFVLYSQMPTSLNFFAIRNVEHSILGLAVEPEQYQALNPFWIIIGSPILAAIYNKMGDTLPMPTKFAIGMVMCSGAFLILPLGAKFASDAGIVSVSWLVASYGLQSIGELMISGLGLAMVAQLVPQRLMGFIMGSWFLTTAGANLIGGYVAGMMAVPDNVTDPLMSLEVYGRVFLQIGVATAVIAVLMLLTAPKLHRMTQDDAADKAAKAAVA

YdgR [2] = target: T1, YdgR; assay: fluorescent uptake in E. coli; conditions: 0.5 mM, labelled compound, pH 6.5, 37 °C
YjdL = target: T2, YjdL (Escherichia coli, UniProt P39276); assay: fluorescent uptake in E. coli; conditions: 0.5 mM, labelled compound, cells preloaded with AA, with and without CCCP, 37 °C
T2 construct: gene dtpC; full-length, C-terminal His6 tag, expressed in E. coli BL21(DE3) pLysS, whole-cell uptake
T2 sequence (P39276 1-485): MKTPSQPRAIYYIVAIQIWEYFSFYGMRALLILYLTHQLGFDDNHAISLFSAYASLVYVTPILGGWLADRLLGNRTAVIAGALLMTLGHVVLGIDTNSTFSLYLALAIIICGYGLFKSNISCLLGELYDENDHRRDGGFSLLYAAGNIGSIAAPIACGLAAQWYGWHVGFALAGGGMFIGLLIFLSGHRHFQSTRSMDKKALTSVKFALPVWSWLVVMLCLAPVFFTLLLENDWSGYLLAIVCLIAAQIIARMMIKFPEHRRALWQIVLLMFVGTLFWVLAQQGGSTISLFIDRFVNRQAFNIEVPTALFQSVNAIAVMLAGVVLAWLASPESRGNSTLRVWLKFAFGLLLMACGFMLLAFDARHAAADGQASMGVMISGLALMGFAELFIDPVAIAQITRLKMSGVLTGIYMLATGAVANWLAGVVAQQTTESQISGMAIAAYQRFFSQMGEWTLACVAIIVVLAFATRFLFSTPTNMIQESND

Structure (SMILES) | uptake inhibition (YdgR [1]) | fluorescent uptake in E. coli (YdgR [2]) | fluorescent uptake in E. coli (YjdL)
C[C@H](N)C(=O)N[C@@H](C)C(=O)O [AA] (H-Ala-Ala-OH) | its uptake was significantly decreased in the presence of AA and AAA | – | –
Cc1c(CC(=O)NCCCC[C@H](NC(=O)CCN)C(=O)O)c(=O)oc2cc(N)ccc12 [β-Ala-Lys-AMCA] | – | Overall β-Ala-Lys-AMCA uptake by CPEPOT was significantly lower than YdgR | YjdL and YdgR exhibited a significant decline in uptake activity in the presence of CCCP
